Measurements reported in publication PMC10485906, “Development of a Dihydroquinoline–Pyrazoline GluN2C/2D-Selective Negative Allosteric Modulator of the N-Methyl-D-aspartate Receptor” (ACS Chemical Neuroscience, 2023).
Like-named read-outs stand apart in the source and are kept apart here.

Experiments:
GluN1/GluN2A [1] = biological target: T1, GluN1/GluN2A (Rattus norvegicus, UniProt P35439+Q00959); assay: Two-electrode voltage-clamp recordings, Xenopus laevis oocytes, GluN1/GluN2A; format: cell-based; conditions: 100 μM glutamate, 30 μM glycine; for IC50: read-out: IC50 GluN2A [95% CI]; for remaining activity at 30 µM: 30 μM test compound, mean ± SEM, read-out: I 30 μM / I control GluN2A
T1 construct: expressed in transfected cells; host or cells: Xenopus laevis oocytes (cRNA injection)
Description: (§1) All target compounds were evaluated for NMDAR antagonism using two-electrode voltage-clamp recordings from Xenopus laevis oocytes coexpressing recombinant GluN1 and GluN2A-D subunits (Table 1).[32],[42],[33] All analogues were assessed as either a racemic (2b, 2e–2r) or diastereomeric (2d) mixture to simplify purification and streamline in vitro analysis. […] Moreover, as illustrated by the significant loss of NMDAR activity observed with nitrile 2e, the DQP allosteric site necessitated an H-bond donor/acceptor relationship at the carboxylate position. […] The loss of NMDAR activity observed with the trifluoro analogue 2j (Table S1) reinforced the necessity for an H-bond donor/acceptor relationship to maintain allosteric binding and established that fluorine substitution alone is ineffective. […] A single methyl substitution of the amide in compound 2q improved selectivity against GluN2A and had similar potency as 2a, whereas dual methyl substitution reduced potency (2r). We expect that this is likely due to the ability of the […] of the amide to accept hydrogen bonds while the amide can readily donate a proton.
(§2) Unfertilized Xenopus laevis oocytes were obtained from Ecocyte (Austin, TX), or ovaries were purchased from Xenopus 1 (Dexter, MI) and oocytes prepared as previously described.[42],[47] Two-electrode voltage-clamp recordings were performed on oocytes expressing recombinant rat GluN1/GluN2A, GluN1/GluN2B, GluN1/GluN2C, or GluN1/GluN2D. cDNAs for rat GluN1-1a (referred to as GluN1; NCBI Reference Sequence NM_017010.2), GluN2A (NM_012573.4), GluN2B (NM_012574.1), GluN2C (NM_012575.3), and GluN2D (NM_022797.2) were provided by Dr. S. Heinemann from the Salk Institute, Dr. S. Nakanishi from Kyoto University, and Dr. P. Seeburg from the University of Heidelberg. Oocyte isolation, cRNA synthesis, and cRNA injections were performed as previously described.[32],[33],[47] Briefly, Xenopus laevis oocytes were injected with 5–10 ng of cRNA in RNase-free water with the GluN1:GluN2 ratio ranging from 1:1 to 1:5. Oocytes were incubated at 15–19 °C in Barth’s solution consisting of (in mM) 88 NaCl, 1 KCl, 2.4 NaHCO3, 10 HEPES, 0.82 MgSO4, 0.33 Ca(NO3)2, and 0.41 CaCl2 supplemented with 100 μg/mL gentamycin, 40 μg/mL streptomycin, and 50 μg/mL penicillin. Recordings were performed 2–4 days after injection with extracellular recording solution containing (in mM) 90 NaCl, 1 KCl, 10 HEPES, 0.5 BaCl2, and 0.01 EDTA at pH 7.4 adjusted with NaOH. To prevent a gradual increase in current response over the course of the experiment, some oocytes expressing GluN1/GluN2A were injected with 20–50 nL of 2–50 mM K-BAPTA. Concentration–response curves for test compounds were generated by applying a maximally effective concentration of glutamate (100 μM) and glycine (30 μM), followed by glutamate and glycine with variable concentrations of test compounds up to 30 μM. The test compounds were prepared as 20 mM stock solutions in DMSO and diluted to the final concentration in recording solution. The DMSO content was 0.05–0.5% (v/v). […] Methods for off-target analysis are given in the Supporting Information.
(§3) Confidence intervals were determined for the log(IC50). The time course of relaxation during inhibitor application or deactivation following rapid removal of NMDA or glutamate was fitted by the equation [drawing 5] 2

GluN1/GluN2B [2] = biological target: T2, GluN1/GluN2B (Rattus norvegicus, UniProt P35439+Q00960); assay: Two-electrode voltage-clamp recordings, Xenopus laevis oocytes, GluN1/GluN2B; format: cell-based; conditions: 100 μM glutamate, 30 μM glycine; for remaining activity at 30 µM: 30 μM test compound, mean ± SEM, read-out: I 30 μM / I control GluN2B; for IC50: read-out: IC50 GluN2B [95% CI]
T2 construct: GluN2B (NM_012574.1), GluN2C (NM_012575.3), and GluN2D (NM_022797.2) were provided by; expressed in transfected cells; host or cells: Xenopus laevis oocytes (cRNA injection)
Description: as §1, §2, §3

GluN1/GluN2C [3] = biological target: GluN1/GluN2C (Rattus norvegicus, UniProt P35439+Q00961); assay: Two-electrode voltage-clamp recordings, Xenopus laevis oocytes, GluN1/GluN2C; format: cell-based; design: GluN2B (NM_012574.1), GluN2C (NM_012575.3), and GluN2D (NM_022797.2) were provided by; expressed in transfected cells; host or cells: Xenopus laevis oocytes (cRNA injection); conditions: 100 μM glutamate, 30 μM glycine; for IC50: read-out: IC50 GluN2C [95% CI]; for remaining activity at 30 µM: 30 μM test compound, mean ± SEM, read-out: I 30 μM / I control GluN2C
Description: as §1, §2, §3

GluN1/GluN2C [4] = biological target: GluN1/GluN2C (Rattus norvegicus, UniProt Q00961); assay: as above; format: cell-based; design: GluN2B (NM_012574.1), GluN2C (NM_012575.3), and GluN2D (NM_022797.2) were provided by; expressed in transfected cells; host or cells: Xenopus laevis oocytes (cRNA injection); conditions: 100 μM glutamate, 30 μM glycine, mean ± SEM
Description: as §1, §2, §3

GluN1/GluN2D [5] = biological target: GluN1/GluN2D (Rattus norvegicus, UniProt P35439+Q62645); assay: Two-electrode voltage-clamp recordings, Xenopus laevis oocytes, GluN1/GluN2D; format: cell-based; design: GluN2B (NM_012574.1), GluN2C (NM_012575.3), and GluN2D (NM_022797.2) were provided by; expressed in transfected cells; host or cells: Xenopus laevis oocytes (cRNA injection); conditions: 100 μM glutamate, 30 μM glycine; for IC50: read-out: IC50 GluN2D [95% CI]; for remaining activity at 30 µM: 30 μM test compound, mean ± SEM, read-out: I 30 μM / I control GluN2D
Description: as §1, §2, §3

GluN1/GluN2D [6] = biological target: GluN1/GluN2D (Rattus norvegicus, UniProt Q62645); assay: as above; format: cell-based; design: GluN2B (NM_012574.1), GluN2C (NM_012575.3), and GluN2D (NM_022797.2) were provided by; expressed in transfected cells; host or cells: Xenopus laevis oocytes (cRNA injection); conditions: for Selectivity 2A IC50 / 2D IC50: GluN2D over GluN2A; for Selectivity 2B IC50 / 2D IC50: GluN2D over GluN2B
Description: as §1, §2, §3

GluN1/GluN2A [7] = biological target: T3, GluN1/GluN2A (Rattus norvegicus, UniProt Q00959); assay: Two-electrode voltage-clamp recordings, Xenopus laevis oocytes, GluN1/GluN2A; format: cell-based; conditions: tested at 3 μM; 100 μM glutamate, 30 μM glycine; mean ± SEM
T3 construct: expressed in transfected cells; host or cells: Xenopus laevis oocytes (cRNA injection)
Description: as §1, §2, §3

GluN1/GluN2B [8] = biological target: T4, GluN1/GluN2B (Rattus norvegicus, UniProt Q00960); assay: Two-electrode voltage-clamp recordings, Xenopus laevis oocytes, GluN1/GluN2B; format: cell-based; conditions: tested at 3 μM; 100 μM glutamate, 30 μM glycine; mean ± SEM
T4 construct: GluN2B (NM_012574.1), GluN2C (NM_012575.3), and GluN2D (NM_022797.2) were provided by; expressed in transfected cells; host or cells: Xenopus laevis oocytes (cRNA injection)
Description: as §1, §2, §3

[9] = Brain homogenate tissue binding and stability (RED device); format: in vitro ADME, mouse
Description: Carbamazepine (Apin Chemicals) served as a positive control for brain tissue binding. Test compounds and the positive control were initially dissolved in DMSO to make 1 mM stock solutions. […] A rapid equilibrium dialysis (RED) device (Thermo Scientific) containing a dialysis membrane with a molecular weight cutoff of 8000 Da was used to assess tissue binding and metabolic stability. […] The test compounds and positive control (200 μL of 5 μM solution) were added to the red chamber of the dialysis insert, while the white chamber was filled with dialysis buffer (350 μL). The RED device was then sealed with an adhesive film and incubated at 37 °C with shaking (300 rpm) for 4 h. For the initial time point (t = 0 min), 50 μL aliquots of test compounds and the positive control were added to 96-deep well plates (0.7 mL per well) and quenched with 400 μL of MeCN. Following dialysis, another 50 μL aliquot of the tested samples was removed from each well (brain homogenate and buffer) and diluted with an equal volume of the opposite matrix to nullify any matrix effects. […] The supernatant (100 μL) was subsequently transferred to 96-deep well plates for LC-MS/MS analysis. Prodrug metabolism and 2i concentrations were determined by fit-for-purpose LC-MS/MS methods on a nine-point calibration curve ranging from 0.12 to 7.5 μM.

T1 sequence (Q00959 23-1464, other chains not shown): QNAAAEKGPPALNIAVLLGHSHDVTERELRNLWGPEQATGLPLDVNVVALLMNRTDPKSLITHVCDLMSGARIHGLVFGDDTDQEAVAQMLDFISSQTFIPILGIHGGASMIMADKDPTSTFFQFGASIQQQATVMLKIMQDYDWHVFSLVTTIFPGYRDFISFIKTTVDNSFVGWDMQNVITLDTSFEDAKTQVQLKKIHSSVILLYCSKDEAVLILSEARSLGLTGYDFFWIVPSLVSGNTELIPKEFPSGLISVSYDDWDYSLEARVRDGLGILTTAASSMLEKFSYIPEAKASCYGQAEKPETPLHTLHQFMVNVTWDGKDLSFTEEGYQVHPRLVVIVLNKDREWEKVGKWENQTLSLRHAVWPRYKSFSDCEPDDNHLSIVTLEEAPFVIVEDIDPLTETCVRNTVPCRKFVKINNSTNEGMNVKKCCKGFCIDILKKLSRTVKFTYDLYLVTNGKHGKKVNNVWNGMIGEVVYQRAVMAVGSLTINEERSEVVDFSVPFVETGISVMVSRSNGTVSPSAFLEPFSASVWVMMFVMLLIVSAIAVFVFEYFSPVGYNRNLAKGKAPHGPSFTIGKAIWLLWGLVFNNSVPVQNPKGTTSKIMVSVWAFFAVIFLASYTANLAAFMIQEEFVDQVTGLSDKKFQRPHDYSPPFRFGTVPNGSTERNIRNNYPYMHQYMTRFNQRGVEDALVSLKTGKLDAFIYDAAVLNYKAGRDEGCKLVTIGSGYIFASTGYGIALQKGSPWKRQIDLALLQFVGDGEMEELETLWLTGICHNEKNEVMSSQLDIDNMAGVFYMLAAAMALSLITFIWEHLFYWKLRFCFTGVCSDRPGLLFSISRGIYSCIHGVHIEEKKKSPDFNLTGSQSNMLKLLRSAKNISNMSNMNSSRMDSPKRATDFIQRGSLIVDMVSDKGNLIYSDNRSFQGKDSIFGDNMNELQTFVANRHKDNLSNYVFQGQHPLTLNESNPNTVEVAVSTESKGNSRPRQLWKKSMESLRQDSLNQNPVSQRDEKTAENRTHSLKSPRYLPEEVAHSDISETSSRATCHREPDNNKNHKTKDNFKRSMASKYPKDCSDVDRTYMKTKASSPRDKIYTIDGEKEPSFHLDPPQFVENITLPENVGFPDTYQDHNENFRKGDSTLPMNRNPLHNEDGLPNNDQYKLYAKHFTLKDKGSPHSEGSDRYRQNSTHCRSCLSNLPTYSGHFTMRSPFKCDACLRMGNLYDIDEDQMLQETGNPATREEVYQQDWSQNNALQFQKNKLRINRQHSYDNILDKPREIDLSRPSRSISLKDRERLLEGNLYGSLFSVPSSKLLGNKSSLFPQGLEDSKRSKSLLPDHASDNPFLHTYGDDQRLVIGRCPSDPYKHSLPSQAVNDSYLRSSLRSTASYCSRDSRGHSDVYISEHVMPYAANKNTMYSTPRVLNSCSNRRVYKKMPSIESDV
T2 sequence (Q00960 27-1482, other chains not shown): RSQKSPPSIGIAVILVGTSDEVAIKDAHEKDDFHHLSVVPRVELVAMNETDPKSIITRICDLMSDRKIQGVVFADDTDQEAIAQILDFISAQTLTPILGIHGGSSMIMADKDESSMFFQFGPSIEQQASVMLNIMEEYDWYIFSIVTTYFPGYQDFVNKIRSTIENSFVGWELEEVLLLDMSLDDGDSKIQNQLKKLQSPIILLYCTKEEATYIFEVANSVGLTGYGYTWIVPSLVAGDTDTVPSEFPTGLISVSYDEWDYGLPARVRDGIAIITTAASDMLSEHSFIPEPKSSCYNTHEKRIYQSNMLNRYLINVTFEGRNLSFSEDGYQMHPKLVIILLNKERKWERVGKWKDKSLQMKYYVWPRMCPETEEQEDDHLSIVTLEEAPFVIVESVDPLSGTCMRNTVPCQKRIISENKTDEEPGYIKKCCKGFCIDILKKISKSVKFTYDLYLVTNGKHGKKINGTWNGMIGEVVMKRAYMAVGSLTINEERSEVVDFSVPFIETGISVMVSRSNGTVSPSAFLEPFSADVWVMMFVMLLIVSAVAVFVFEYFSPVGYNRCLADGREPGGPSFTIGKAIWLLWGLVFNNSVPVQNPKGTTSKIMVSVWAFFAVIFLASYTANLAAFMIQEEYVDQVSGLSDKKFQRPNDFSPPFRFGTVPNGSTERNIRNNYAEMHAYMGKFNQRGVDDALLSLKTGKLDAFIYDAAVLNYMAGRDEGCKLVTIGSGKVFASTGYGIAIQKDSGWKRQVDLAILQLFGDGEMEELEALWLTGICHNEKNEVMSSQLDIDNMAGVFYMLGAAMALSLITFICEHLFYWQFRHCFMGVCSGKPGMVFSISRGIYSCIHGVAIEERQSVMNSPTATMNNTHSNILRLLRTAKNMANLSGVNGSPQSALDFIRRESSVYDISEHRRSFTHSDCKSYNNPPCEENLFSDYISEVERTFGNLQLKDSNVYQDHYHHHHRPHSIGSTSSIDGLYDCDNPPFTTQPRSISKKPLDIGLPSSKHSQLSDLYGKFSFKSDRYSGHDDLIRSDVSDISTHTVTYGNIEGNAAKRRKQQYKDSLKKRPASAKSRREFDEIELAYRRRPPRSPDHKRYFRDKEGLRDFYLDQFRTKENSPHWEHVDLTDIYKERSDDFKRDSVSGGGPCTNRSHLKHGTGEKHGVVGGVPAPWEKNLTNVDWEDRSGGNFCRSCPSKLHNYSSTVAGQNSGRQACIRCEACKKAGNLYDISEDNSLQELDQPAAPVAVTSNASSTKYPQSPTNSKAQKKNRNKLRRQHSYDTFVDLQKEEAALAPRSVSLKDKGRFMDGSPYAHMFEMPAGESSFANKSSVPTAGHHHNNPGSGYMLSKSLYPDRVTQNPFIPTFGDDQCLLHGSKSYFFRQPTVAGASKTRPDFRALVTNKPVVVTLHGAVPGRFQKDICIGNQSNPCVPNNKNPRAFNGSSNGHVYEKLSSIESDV
Sequence of GluN1/GluN2D (Rattus norvegicus, UniProt P35439+Q62645) (Q62645 28-1323, other chains not shown): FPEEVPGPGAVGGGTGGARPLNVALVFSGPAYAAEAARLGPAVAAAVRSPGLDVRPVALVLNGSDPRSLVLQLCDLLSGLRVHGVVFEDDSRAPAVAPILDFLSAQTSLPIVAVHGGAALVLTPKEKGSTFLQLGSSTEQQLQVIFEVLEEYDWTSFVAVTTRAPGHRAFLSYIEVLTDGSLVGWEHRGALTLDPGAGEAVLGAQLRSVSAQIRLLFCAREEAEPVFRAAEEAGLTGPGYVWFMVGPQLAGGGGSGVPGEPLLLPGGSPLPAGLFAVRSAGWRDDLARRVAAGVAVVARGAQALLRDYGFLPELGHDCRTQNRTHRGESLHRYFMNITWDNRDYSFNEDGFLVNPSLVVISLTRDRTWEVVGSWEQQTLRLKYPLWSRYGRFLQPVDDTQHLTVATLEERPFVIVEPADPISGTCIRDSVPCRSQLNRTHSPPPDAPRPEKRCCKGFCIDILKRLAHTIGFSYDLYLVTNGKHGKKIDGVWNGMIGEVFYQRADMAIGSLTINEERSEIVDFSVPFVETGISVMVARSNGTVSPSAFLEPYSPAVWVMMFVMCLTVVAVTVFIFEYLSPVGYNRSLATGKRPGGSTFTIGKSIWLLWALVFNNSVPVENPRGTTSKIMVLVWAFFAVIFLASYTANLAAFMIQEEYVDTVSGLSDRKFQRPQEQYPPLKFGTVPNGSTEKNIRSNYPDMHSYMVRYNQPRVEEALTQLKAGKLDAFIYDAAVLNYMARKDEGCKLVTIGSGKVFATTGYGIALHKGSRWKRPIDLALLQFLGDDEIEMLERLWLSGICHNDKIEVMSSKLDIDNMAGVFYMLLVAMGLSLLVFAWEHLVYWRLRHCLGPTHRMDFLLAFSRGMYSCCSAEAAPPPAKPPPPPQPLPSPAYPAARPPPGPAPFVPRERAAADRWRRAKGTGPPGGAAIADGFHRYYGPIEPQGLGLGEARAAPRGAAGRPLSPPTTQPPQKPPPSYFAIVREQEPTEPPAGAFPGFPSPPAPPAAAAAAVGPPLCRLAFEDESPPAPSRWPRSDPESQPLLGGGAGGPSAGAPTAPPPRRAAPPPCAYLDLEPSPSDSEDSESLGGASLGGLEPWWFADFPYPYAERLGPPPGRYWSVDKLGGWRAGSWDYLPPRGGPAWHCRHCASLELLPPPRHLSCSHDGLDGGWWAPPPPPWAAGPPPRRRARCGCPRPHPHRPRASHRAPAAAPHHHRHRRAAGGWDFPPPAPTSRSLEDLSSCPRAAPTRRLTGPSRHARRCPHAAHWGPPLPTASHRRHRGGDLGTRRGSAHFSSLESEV
Sequence of GluN1/GluN2D (Rattus norvegicus, UniProt Q62645) (Q62645 28-1323, other chains not shown): as above

IC50 (GluN1/GluN2A [1]) | remaining activity at 30 µM (GluN1/GluN2B [2]) | IC50 (GluN1/GluN2B [2]) | IC50 (GluN1/GluN2C [3]) | IC50 (GluN1/GluN2D [5]) | Selectivity 2A IC50 / 2D IC50 (GluN1/GluN2D [6]) | Selectivity 2B IC50 / 2D IC50 (GluN1/GluN2D [6]) | remaining activity at 30 µM (GluN1/GluN2A [1]) | remaining activity at 30 µM (GluN1/GluN2C [3]) | remaining activity at 30 µM (GluN1/GluN2D [5]) | SMILES | also measured
25 µM | 57 ± 2.6% | 37 µM | 0.9 µM | 0.64 µM | 39 fold | 58 fold |  |  |  | O=C(O)CCCC(=O)N1N=C(c2c(-c3ccc(Cl)cc3)c3ccccc3[nH]c2=O)CC1c1ccc(Cl)cc1 (stereo not shown) [2b] | I / I control GluN2C (GluN1/GluN2C [4]; tested at 10 μM (footnote b)): 13 ± 1.3 ^b (1,8) %; I / I control GluN2D (GluN1/GluN2D [6]; tested at 10 μM (footnote b), 100 μM glutamate, 30 μM glycine, mean ± SEM): 5.9 ± 1.6 ^b (1,8) %
15 µM | 48 ± 4% | 21 µM | 2.1 µM | 1.1 µM | 14 fold | 19 fold | 36 ± 5.2% | 16 ± 5% | 3.1 ± 0.59% | N[C@@H](CCC(=O)N1N=C(c2c(-c3ccc(Cl)cc3)c3ccccc3[nH]c2=O)CC1c1ccc(Cl)cc1)C(=O)O (stereo partly shown) [2d] | 
 | 82 ± 2.4% |  | 99 µM | 28 µM |  |  | 94 ± 1.4% | 67 ± 2.6% | 46 ± 5% | N#CCCC(=O)N1N=C(c2c(-c3ccc(Cl)cc3)c3ccccc3[nH]c2=O)CC1c1ccc(Cl)cc1 (stereo not shown) [2e] | 
22 µM | 48 ± 1.9% | 29 µM | 0.57 µM | 0.52 µM | 42 fold | 56 fold | 29 ± 4.1% | 2.3 ± 0.5% | 2.4 ± 0.56% | O=C(CCc1nnn[nH]1)N1N=C(c2c(-c3ccc(Cl)cc3)c3ccccc3[nH]c2=O)CC1c1ccc(Cl)cc1 (stereo not shown) [2h] | 
 | 86 ± 2.3% |  |  |  |  |  | 96 ± 2.1% | 100 ± 2.2% | 86 ± 2.8% | O=C(N1N=C(c2c(-c3ccc(Cl)cc3)c3ccccc3[nH]c2=O)CC1c1ccc(Cl)cc1)C(F)(F)F (stereo not shown) [2j] | 
 |  |  | 0.51 µM | 0.31 µM |  |  |  |  |  | O=C(O)CC(F)(F)C(=O)N1N=C(c2c(-c3ccc(Cl)cc3)c3ccccc3[nH]c2=O)C[C@@H]1c1ccc(Cl)cc1 [(R)-(+)-2i] | I3 μM/Icontrol GluN2A (GluN1/GluN2A [7]): 103 ± 2.5 (3, 16) %; I3 μM/Icontrol GluN2B (GluN1/GluN2B [8]): 99 ± 2.4 (3, 12) %; I3 μM/Icontrol GluN2C (GluN1/GluN2C [4]; tested at 3 μM): 52 ± 2.1 (2, 12) %; I3 μM/Icontrol GluN2D (GluN1/GluN2D [6]; tested at 3 μM, 100 μM glutamate, 30 μM glycine, mean ± SEM): 42 ± 3.5 (2, 13) %
 |  |  |  |  |  |  |  |  |  | NC(=O)N1c2ccccc2C=Cc2ccccc21 [Carbamazepine, reference compound] | fraction unbound at 4 h, 5 µM ([9]; C57BL/6, mouse, brain homogenate (4 times diluted), pH 7.4, mouse brain tissue binding (free fraction in brain), read-out: % Unbound): 0.135; fraction unbound at 4 h, 5 µM ([9]; C57BL/6, mouse, brain homogenate (4 times diluted), pH 7.4, mouse brain tissue binding, RED, 4 h, read-out: % Bound Mean ± SD (converted)): 0.135; fraction unbound at 4 h, 5 µM ([9]; C57BL/6, mouse, brain homogenate (4 times diluted), pH 7.4, mouse brain tissue binding, RED, 4 h, read-out: % Bound R1 (converted)): 0.131; fraction unbound at 4 h, 5 µM ([9]; C57BL/6, mouse, brain homogenate (4 times diluted), pH 7.4, mouse brain tissue binding, RED, 4 h, read-out: % Bound R2 (converted)): 0.14; fraction unbound at 4 h, 5 µM ([9]; C57BL/6, mouse, brain homogenate (4 times diluted), pH 7.4, mouse brain tissue binding, read-out: fu): 0.135; remaining at 4 h, 5 µM ([9]; C57BL/6, mouse, brain homogenate (4 times diluted), pH 7.4, starting concentration 5 μM, 4 h): 105%; recovery at 4 h, 5 μM ([9]; C57BL/6, pH 7.4, mouse brain tissue binding, RED, 4 h): 91%
